In experiment [1] the test system is N. gonorrhoeae strains FA1090, WHO K, WHO P, WHO X. The experiment can be described thus: Antibiotic MIC with peptide cotreatment, summarised over the strains tested. It counts as cell-based, Neisseria gonorrhoeae. To be noted: for Reduction of the MICs of the four antibiotics tested on cotreatment: for at least one N. gonorrhoeae strain. The method, then: (§1) Six peptides were tested against N. gonorrhoeae strains with various antimicrobial resistance phenotypes and with either standard MtrCDE expression (strain FA1090) or MtrCDE overexpression (strains WHO K, WHO P, and WHO X [15, 16]) (Table 2). […] Subsequent experiments were conducted with subinhibitory peptide concentrations (20 μg/ml for FA1090; 50 μg/ml for WHO K, WHO P, and WHO X).
(§2) Experiments were performed using a microdilution method in triplicate wells.
(§3) High-level resistance, resistance, intermediate resistance, and susceptibility phenotypes were determined per previously determined MIC values ([15]) using the interpretive criteria published by the Swedish Reference Group on Antibiotics (SGRA) ([25]). For cotreatment assays (peptide plus antibiotic), the antibiotic dilutions were made up in GC broth that contained the peptide at the appropriate concentration. The experiments were performed with peptide-only and antibiotic-only controls. Each well was inoculated with 10 μl of the appropriate N. gonorrhoeae strain at an optical density (absorbance at 600 nm) of 0.1 (∼1 × 10^6 CFU/ml). All experiments were performed with triplicate samples on at least three occasions.

The test system of experiment [2] is N. gonorrhoeae strain WHO P (MtrCDE overexpression). The experiment is described as follows: microbe, parasite or virus in culture. To be noted: for Reduction of azithromycin MIC compared with that for MtrCDE knockout versus wild-type strains: 50 μg/ml peptide, knockout comparison from ref 6; for Antimicrobial resistance phenotype, AZM, in the presence of peptide: cotreatment with 50 μg/ml peptide, EUCAST breakpoints; for MIC: Neisseria gonorrhoeae, 20 h. It counts as cell-based, Neisseria gonorrhoeae. The method, then:
as §1, §2, §3

For experiment [3], the system named is N. gonorrhoeae strain WHO K (MtrCDE overexpression). The experiment can be described thus: microbe, parasite or virus in culture. It counts as cell-based, Neisseria gonorrhoeae. To be noted: for MIC: Neisseria gonorrhoeae, 20 h. The procedure:
as §1, §2
[…] For cotreatment assays (peptide plus antibiotic), the antibiotic dilutions were made up in GC broth that contained the peptide at the appropriate concentration. The experiments were performed with peptide-only and antibiotic-only controls. Each well was inoculated with 10 μl of the appropriate N. gonorrhoeae strain at an optical density (absorbance at 600 nm) of 0.1 (∼1 × 10^6 CFU/ml). All experiments were performed with triplicate samples on at least three occasions.

For experiment [4], the system named is N. gonorrhoeae strain FA1090 (standard MtrCDE expression). The experiment can be described thus: MIC, broth microdilution (CLSI), antibiotic alone, peptide alone or peptide cotreatment. The experiment is classed as cell-based. Conditions: Neisseria gonorrhoeae. The method, then:
as §1, §2, §3
On the technique in general: Broth dilution looks for growth in wells or tubes with falling amounts of substance.

The test system of experiment [5] is N. gonorrhoeae strain WHO X (MtrCDE overexpression). The experiment can be described thus: microbe, parasite or virus in culture. It counts as cell-based, Neisseria gonorrhoeae. To be noted: for MIC: Neisseria gonorrhoeae, 20 h. The procedure: as §1, §2, §3
Experiment [6] deals with N. gonorrhoeae strain WHO X ΔmtrE. The experiment can be described thus: Antibiotic MIC with or without P-MtrE1, mtrE knockout strain. The experiment is classed as cell-based, Neisseria gonorrhoeae. The procedure:
(§4) N. gonorrhoeae strains used in this study include FA1090 (standard MtrCDE expression) ([22]), WHO K (MtrCDE overexpression) ([15]), WHO P (MtrCDE overexpression) ([15]), and WHO X (MtrCDE overexpression) ([16]). Wild-type strains were grown on GC agar or in GC broth (Oxoid) supplemented with IsoVitaleX (Bacto) at 37°C in 5% CO2. mtrE knockout strains of N. gonorrhoeae WHO X and WHO P (ΔmtrE) were generated by transforming bacteria with 1 μg of a linear DNA fragment (IDT) containing aminoglycoside 3′-phosphotransferase gene (NCBI accession no. VTT49712.1) flanked by 500-bp terminal fragments of the N. gonorrhoeae FA1090 mtrE gene (GenBank accession no. AE004969.1, positions 1 to 500 and 903 to 1403), as well as the gonococcal DNA uptake sequence ([…]) at the 5′ end ([23]). E. coli strain DH5α, used for cloning, was grown using Luria-Bertani agar or broth (Oxoid) at 37°C. The media were supplemented with 100 μg/ml ampicillin or 50 μg/ml kanamycin, as required.
as §2, §3

For experiment [7], the system named is N. gonorrhoeae strain WHO P ΔmtrE. Described as above. The experiment is classed as cell-based, Neisseria gonorrhoeae. The method, then: as §4, §2, §3
Where [8] appears, read: read-out: MIC of AZM (azithromycin).
[9] abbreviates: WHO K, antibiotic alone, EUCAST breakpoints.
Setting [10] is: read-out: MIC of CRO (ceftriaxone).
[11] abbreviates: read-out: MIC of ERY (erythromycin).
The mark [12] stands for this setting: gentamicin is not subject to efflux by MtrCDE.
The mark [13] stands for this setting: presence or absence of subinhibitory P-MtrE1 concentrations (0 or 6.5 μg/ml, Fig. 2).

Read-outs that look alike come from different tables or passages of the source.

As for “(KFF)3KGSGVMKLRRQI [P-MtrC1, self-derived peptide, 8 amino acids of MtrC fused to (KFF)3K cell-permeating peptide and GSG linker]”, the “Reduction of the MICs of the four antibiotics tested on cotreatment” value (“Reduction of the MICs … on cotreatment” below) in experiment [1] is on record as “at least 2 fold”. In experiment [2] (WHO P), the “Reduction of azithromycin MIC compared with that for MtrCDE knockout versus wild-type strains” value was “same magnitude” and the “Antimicrobial resistance phenotype, AZM, in the presence of peptide” value was “I”.
For `CC[C@H]1OC(=O)[C@H](C)[C@@H](O[C@H]2C[C@@](C)(OC)[C@@H](O)[C@H](C)O2)[C@H](C)[C@@H](O[C@@H]2O[C@H](C)C[C@H](N(C)C)[C@H]2O)[C@](C)(O)C[C@@H](C)CN(C)[C@H](C)[C@@H](O)[C@]1(C)O` [AZM, azithromycin], the MIC in experiment [3] (setting [8]) stood at 0.25 µg/mL; in experiment [4] (read-out: MIC of AZM (azithromycin), antibiotic alone, microdilution per CLSI, GC broth, 20 h, triplicate wells), 0.063 µg/mL; in experiment [2] (setting [8]), 4 µg/mL; in experiment [5] (setting [8]), 0.5 µg/mL. Moreover, the “Antimicrobial resistance phenotype, AZM” value in experiment [3] (setting [9]) is reported as “S (S ≤ 0.25)”.
Take `CO/N=C(\C(=O)N[C@@H]1C(=O)N2C(C(=O)O)=C(CSc3nc(=O)c(=O)[nH]n3C)CS[C@H]12)c1csc(N)n1` [CRO, ceftriaxone]: the MIC in experiment [3] (setting [10]) is 0.031 µg/mL; in experiment [4] (read-out: MIC of CRO (ceftriaxone), antibiotic alone, microdilution per CLSI, GC broth, 20 h, triplicate wells) it was less than 0.0078 µg/mL; in experiment [2] (setting [10]), 0.004 µg/mL; in experiment [5] (setting [10]) it was 2 µg/mL. In addition, the “Antimicrobial resistance phenotype, CRO” value in experiment [3] (setting [9]) is listed as “S (S ≤ 0.125)”.
With `CC[C@H]1OC(=O)[C@H](C)[C@@H](O[C@H]2C[C@@](C)(OC)[C@@H](O)[C@H](C)O2)[C@H](C)[C@@H](O[C@@H]2O[C@H](C)C[C@H](N(C)C)[C@H]2O)[C@](C)(O)C[C@@H](C)C(=O)[C@H](C)[C@@H](O)[C@]1(C)O` [ERY, erythromycin, reference compound], the MIC in experiment [4] (antibiotic alone, microdilution per CLSI, GC broth, 20 h, triplicate wells, read-out: MIC of ERY (erythromycin)) is 0.2 µg/mL; in experiment [2] (setting [11]), 16 µg/mL; in experiment [5] (setting [11]) it was 2 µg/mL.
For the compound “(KFF)3KGSGVFLVPLFY [P-MtrD1, self-derived peptide, 8 amino acids of MtrD fused to (KFF)3K cell-permeating peptide and GSG linker]”, the “Reduction of the MICs … on cotreatment” value in experiment [1] is on record as “at least 2 fold”.
On the same count and under the same terms, in the case of “(KFF)3KGSGDAAHLSLIATVAKAYFNERY [P-MtrE2, self-derived peptide, 20 amino acids of MtrE fused to (KFF)3K cell-permeating peptide and GSG linker]” it was “at least 2 fold”.
Turning to “(KFF)3KGSG HLSLIATV [P-MtrE1, self-derived peptide, 8 amino acids of MtrE fused to (KFF)3K cell-permeating peptide and GSG linker]”, the “Impact of peptide on susceptibility to gentamicin” value is “no impact” in experiment [6] (setting [12]); “no impact” in experiment [7] (setting [12]); “no impact” in experiment [2] (WHO P wild-type, gentamicin is not subject to efflux by MtrCDE); “no impact” in experiment [5] (WHO X wild-type, gentamicin is not subject to efflux by MtrCDE). Also, the “Change in antibiotic susceptibility to ciprofloxacin or ceftriaxone with peptide” value in experiment [6] (setting [13]) was “no change”. The “Change in antibiotic susceptibility to erythromycin or azithromycin with peptide” value in experiment [7] (setting [13]) is “no change”. In addition, the “Reduction of the MICs … on cotreatment” value in experiment [1] is “at least 2 fold”. Besides, in experiment [2] (WHO P), the “Reduction of azithromycin MIC compared with that for MtrCDE knockout versus wild-type strains” value is reported as “same magnitude”. Besides, the “Peptide concentration able to reduce the MICs of erythromycin and azithromycin” value in experiment [2] (WHO P, concentrations as low as) is not above 6.25 µg/mL. Further, the “Antimicrobial resistance phenotype, AZM, in the presence of peptide” value in experiment [2] (WHO P) is listed as “S (S ≤ 0.25)”. The “Reduction of ciprofloxacin and ceftriaxone MICs compared with that between MtrCDE knockout and wild-type strains” value in experiment [5] (WHO X, 50 μg/ml peptide, knockout comparison from ref 6) is “same magnitude”. The “Peptide concentration able to reduce the MICs of ciprofloxacin and ceftriaxone” value in experiment [5] (WHO X, concentrations as low as) was not above 6.25 µg/mL.
In the case of HLSLIATV [P-MtrE1a], in experiment [1] (control peptides, any strain against which P-MtrE1 had an effect), the “Effect of peptide on susceptibility to the antibiotics tested” value was “not able to increase susceptibility to any antibiotic”.

The values above are taken from PMC8765275, “Self-Inhibitory Peptides Targeting the Neisseria gonorrhoeae MtrCDE Efflux Pump Increase Antibiotic Susceptibility” (Antimicrobial Agents and Chemotherapy, 2022).
